Assay results taken from patent publication US20260364124A1, “ANTI-C. DIFFICILE SMALL MOLECULE METABOLITES FROM DIET AND GUT MICROBIOME” (The Children's Medical Center Corporation, priority 2023, published 2026).
“Also recorded” adds a separate entry of the source.

Legend:
[1] = system: C. difficile; experiment: Phytochemical microbial killing assay, panel of gut bacterial pathogens; type: cell-based, Clostridioides difficile; conditions: 150 μM, media with glucose, growth ratio (AUC) vs vehicle, panel of gut bacterial pathogens (FIG. 3A)
Experimental: Growth is measured as the ratio of growth in media (AUC) supplemented with glucose and 150 μM glycoside or aglycone versus growth in media (AUC) supplemented with glucose and vehicle. Value>1 is representative of enhanced growth in compound and value<1 is representative of inhibition of growth in compound.
Phytochemical microbial killing assays: All gut pathogen isolates were grown on brain-heart-infusion supplemented with hemin (50 mg/L) and vitamin K1 (0.25 mg/L) (BHIS) agar plates or in basal media (BSG; proteose peptone (20 g/L), yeast (5 g/L), NaCl (5 g/L), glucose (5 g/L), potassium phosphate dibasic (5 g/L), cysteine (0.5 g/L), hemin (50 mg/L), and vitamin K1 (0.25 mg/L). Isolates were recovered on and grown in pre-reduced media in a Coy anaerobic chamber (Coy Labs). To determine the fitness effects of phloridzin hydrate (TCI), phloretin (TCI), polydatin (TCI), and resveratrol (TCI) on enteric pathogen fitness, each pathogen isolate was recovered on a BHIS agar plate and incubated anaerobically at 37 °C for 48 h. A starter culture (1 mL) of BSG was inoculated with C. difficile and grown for 15 h. […] Bacterial growth was monitored by measuring the optical density at 600 nm (OD600) of each culture in a 384 well plate with an Epoch2 spectrophotometer (BioTek Instruments) and MicroPlate stacker (Agilent BioTek) for 24 hours.

[2] = system: C. difficile; experiment: C. difficile infection (CDI) mouse model, C. difficile burden (CFU); type: in vivo, mouse (C57BL/6J) infected with Clostridioides difficile; conditions: infected mice; for anti-microbial effect on C. difficile in vivo: 500 μM in drinking water, CFU at day one and day two (FIG. 3C); for C. difficile burden in vivo: pure compound administered (FIGS. 6A-6B)
Experimental: (§1) FIG. 3B provides a heatmap of growth of 20 Clostridioides difficile isolates in the absence of presence of the polyphenolic glycoside polydatin or the Bacteroides liberated aglycone resveratrol. […] Growth induction or inhibition is measured as the ratio of growth in media (AUC) supplemented with glucose and 150 μM polydatin or resveratrol versus growth in media (AUC) supplemented with glucose and vehicle. Value>1 is representative of enhanced growth in compound and value <1 is representative of inhibition of growth in compound.
C. difficile infection (CDI) model: An antibiotic-treatment-induced CDI mouse model developed previously was used for the infection model. Briefly, six-to eight-week-old male and female SPF C57BL/6J WT mice were treated for three days with a mixture of antibiotics including vancomycin (0.4 mg/mL, Sigma) colistin (850 U/mL, Sigma), metronidazole (0.215 mg/mL, Sigma), gentamicin (0.035 mg/mL, RPI), and kanamycin (0.045 mg/mL, Sigma) in their drinking water. Mice were then treated with regular water for two days and then injected intraperitoneal (IP) with clindamycin (10 mg/kg, Mylan Pharmaceuticals) in normal saline. After one day, mice were gavaged with […] of C. difficile M7404 diluted in PBS. Stool was collected from mice at one day and two days post infection, and immediately taken for assessment of C. difficile infection load.
C. difficile colony-forming units (CFUs): Mouse feces were collected from mice on day one and day two of C. difficile infection. Feces were weighed and resuspended to 50 mg/mL in pre-reduced 1× PBS. CFUs were enumerated by plating multiple dilutions on pre-reduced commercial ChromID C. difficile -selective plates (Biomerieux) after incubation for 24 hours at 37 °C in an anaerobic chamber (Coy Labs).

[3] = system: B. uniformis; experiment: In vitro aglycone liberation by wildtype B. uniformis (LC-MS); set-up: species or system Bacteroides uniformis ATCC 8492; conditions: role: product; B. uniformis culture supplemented with glycoside, after eight hours, LC-MS EIC (FIG. 2)
Text: Comparative LC-MS EICs (Extracted Ion Chromatogram) of methanol-water extracts of bacterial cultures supplemented with each polyphenolic glycoside after eight hours are provided. The trace labeled “A” corresponds to the EIC of each glycoside, and the trace labeled “B” corresponds to the EIC of each aglycone. The portion of the trace “B” peak overlapping the trace “A” peak corresponds to the aglycone detected from fragmentation of the glycoside at the ionization source and is a technical artifact.
FIGS. 5A and 5B show microbiome-mediated polyphenol aglycone liberation. […] Step 2: Spent media was filter-sterilized. Step 3: C. difficile was grown in spent media from either vehicle or polydatin (top).
In vitro aglycone liberation: All B. uniformis strains were grown on brain-heart-infusion supplemented with hemin (50 mg/L) and vitamin K1 (0.25 mg/L) (BHIS) agar plates or in basal media (BSG; proteose peptone (20 g/L), yeast (5 g/L), NaCl (5 g/L), glucose (5 g/L), potassium phosphate dibasic (5 g/L), cysteine (0.5 g/L), hemin (50 mg/L), and vitamin K1 (0.25 mg/L). All isolates were recovered on and grown in pre-reduced media in a Coy anaerobic chamber (Coy Labs).
To assess the capacity of Bacteroides to liberate aglycones from their parent polyphenolic glycosides, B. uniformis ATCC 8492 WT and AgshD were recovered on a BHIS agar plate and incubated anaerobically at 37 °C for 48 h. A starter culture (1 mL) of BSG was inoculated with each isolate and grown for 15 h. This starter culture was then used to inoculate a BSG sub-culture (1 mL) at a final dilution of 1:10. […]
For polyphenolic glycoside and aglycone-containing samples, samples were dried under nitrogen flow and resuspended in 50 μl of methanol 50% in water. […] Samples were quantified on a QEplus mass spectrometer coupled to an Ultimate 3000 LC (Thermo fisher). […] Quantification was performed using Tracefinder (Thermo fisher), using the ratio of the area under the peak for each compound and of the internal standard, using the accurate mass of the [M−H]^− ions.

[4] = system: C. difficile isolates; experiment: Phytochemical microbial killing assay, diverse C. difficile isolates; type: cell-based, Clostridioides difficile
Experimental: as §1
Bacterial isolates were grown in vitro in media plus compound. Killing was measured by bacterial culture optical density (proxy for amount of bacteria in a culture).
Phytochemical microbial killing assays: All gut pathogen isolates were grown on brain-heart-infusion supplemented with hemin (50 mg/L) and vitamin K1 (0.25 mg/L) (BHIS) agar plates or in basal media (BSG; proteose peptone (20 g/L), yeast (5 g/L), NaCl (5 g/L), glucose (5 g/L), potassium phosphate dibasic (5 g/L), cysteine (0.5 g/L), hemin (50 mg/L), and vitamin K1 (0.25 mg/L). Isolates were recovered on and grown in pre-reduced media in a Coy anaerobic chamber (Coy Labs). To determine the fitness effects of phloridzin hydrate (TCI), phloretin (TCI), polydatin (TCI), and resveratrol (TCI) on enteric pathogen fitness, each pathogen isolate was recovered on a BHIS agar plate and incubated anaerobically at 37 °C for 48 h. A starter culture (1 mL) of BSG was inoculated with C. difficile and grown for 15 h. This starter culture was then used to inoculate a BSG sub-culture (1 mL) at a final dilution of 1:10. This sub-culture was grown for 3 h to an OD600~0.5 before being used to inoculate experimental cultures at a final dilution of 1:50. The experimental media consisted of a modified YCFA media (mYCFA; casitone (2.5 g/L), yeast extract (0.625 g/L), cysteine (0.5 g/L), magnesium sulfate heptahydrate (f.c. 365 μM), calcium chloride dihydrate (f.c. 610 μM), sodium bicarbonate (4 g/L), dipotassium phosphate (0.45 g/L), monopotassium phosphate (0.45 g/L), sodium chloride (0.9 g/L), sodium acetate (2.71 g/L), Hemin (50 mg/L), Vitamin K1 (0.25 mg/L), ferrous sulfate (4 μg/mL), ATCC vitamin mix (1% v/v)) supplemented with glucose (15 mM, Sigma) plus each compound (150 μM) or glucose (15 mM, Sigma) plus DMSO (0.15%, Sigma). Bacterial growth was monitored by measuring the optical density at 600 nm (OD600) of each culture in a 384 well plate with an Epoch2 spectrophotometer (BioTek Instruments) and MicroPlate stacker (Agilent BioTek) for 24 hours.

| Structure (SMILES) | selective killing of C. difficile [1] | anti-microbial effect on C. difficile in vivo [2] | C. difficile burden in vivo [2] | liberation of aglycone from polyphenolic glycoside [3] | growth inhibition of Clostridioides difficile ([4]; 150 μM, 20 C. difficile isolates, growth ratio (AUC) vs vehicle (FIG. 3B)) | killing / growth inhibition of diverse C. difficile isolates ([4]; in vitro, media plus compound, culture optical density (FIG. 4)) |
| --- | --- | --- | --- | --- | --- | --- |
| O=C(CCc1ccc(O)cc1)c1c(O)cc(O)cc1O [phloretin] | selectively kill the enteric pathogen C. difficile; also recorded: selectively kill hypervirulent C. difficile | potent anti-microbial effects on C. difficile in vivo | decreases C. difficile burden | liberates phloretin and resveratrol from their natural prodrugs in vitro |  |  |
| Oc1ccc(C=Cc2cc(O)cc(O)c2)cc1 [resveratrol] | selectively kill the enteric pathogen C. difficile; also recorded: selectively kill hypervirulent C. difficile | potent anti-microbial effects on C. difficile in vivo | decreases C. difficile burden | liberates phloretin and resveratrol from their natural prodrugs in vitro | showed growth inhibition of Clostridioides difficile; also recorded: universally anti-microbial against C. difficile | kills many diverse C. difficile isolates; also recorded: showed growth inhibition of C. difficile |
